The test system of assay [1] is chronic obstructive pulmonary disease (heaves). As to the kind of experiment: Treatment of chronic obstructive pulmonary disease in horses (Example 5). Type of assay: in vivo, horses (standardbred). As for the experimental part: Three standardbred horses, ages 3 to 7 years, were diagnosed as having chronic obstructive pulmonary disease, also known as equine asthma or the heaves. Clinical signs included frequent coughing, nasal discharge, increased respiratory rate and wheezing in the chest area. The horses were treated orally with 1.5 g of DMG hydrochloride twice daily for ten days.

In assay [2] the test system is Type II collagen. As to the kind of experiment: ELISA immunoassay of antibody to Type II collagen in sera of collagen-immunized rats. Type of assay: in vivo, Female Wistar outbred rats. The method, then:
(§1) Female Wistar outbred rats (age 10-12 weeks) were obtained from Charles River Breeding Laboratories Inc., Wilmington, Mass.) housed in metal cages and fed standard rodent chow with water ad libitum.
(§2) Immunization was performed using the method outlined by Stuart et al. (Stuart et al., supra). Type II collagen was dissolved in 0.01N acetic acid at a concentration of 2 mg/ml stirring overnight at 4° C. An emulsion was made using incomplete Freund's adjuvant (Difco) and each collagen solution at a ratio of 6:4. Eighteen Wistar rats were given 0.1 ml of a cold emulsion of collagen II by intradermal injection of the left hind footpad and booster injections in the tail at one week and again on day 36.
(§3) Dimethylglycine mixed in distilled water was administered intraperitoneally to half of the rats in the study at a dosage rate of 100 mg/kg body weight per day, beginning on the day of collagen immunization. Control rats were injected with only distilled water. Rats were sacrificed at the time of the occurrence of arthritis and were bled by cardiac puncture. Rats surviving at day 30 were bled by the tail vein and were bled again at the end of the study (day 51).
Sera were obtained by cardiac puncture on the day arthritis developed or at the end of the study (day 51). An enzyme-linked immunoassay (ELISA) technique adapted from the methods described by Stuart et al. supra was used to measure antibody titres.
Flat bottom 96 well microtitre plates (Corning) were coated with collagen as follows: Collagen was dissolved in 0.4 ionic strength phosphate buffer, pH 7.6 by stirring overnight at 4° C. The collagen concentration was adjusted to 5 μg/ml determined by the Lowry method (Lowry, O. et al., J. Biol. Chem. 193, 265 [1951]). Each well received 100 μl of collagen solution and the plates were incubated at 4° C. overnight. The coating solution was removed by inverting the plate and sharply snapping the wrist to remove remaining droplets. To reduce nonspecific absorption a blocker of phosphate-buffered saline (PBS) (pH 7.4) containing 0.5% ovalbumin (Grade V), Sigma Chemical Co., St. Louis, Mo.) was added and incubated for 1 hr. The plates were washed with PBS-Tween (containing […]) three times and used immediately. The sera were diluted with PBS-Tween containing 0.5% ovalbumin and aliquots of 100 μl were added to the Type II collagen-coatad microtitre plates. The plates were incubated at 4° C. overnight and washed three times with PBS-Tween. One hundred μl of a 1:3000 dilution of rabbit anti-rat IgG peroxidase conjugate (Sigma) was added and incubated for 4 hr at room temperature. Excess conjugate was removed by washing three times with PBS-Tween and the amount of conjugate bound was determined by adding orthophenylenediamine (OPD) (Sigma Chemical Co.) as a substrate. The substrate was prepared by adding 40 mg of OPD to […] of 0.224M citric acid 0.05M dibasic sodium phosphate pH 5.0 and adding 400 μl of 3% hydrogen peroxide. After incubation with the substrate for 20 min the microtitre plates were read for absorbance at 490 nm using a Mini Reader II (Dynatech).
For orientation: An ELISA detects its analyte on a solid surface through an enzyme-linked reagent.

Assay [3] has as its system arthritis (Type II collagen-induced). The experiment in a line: Type II collagen-induced arthritis in rats, arthritic swelling of hindpaws (Example 1). Type of assay: in vivo, Female Wistar outbred rats. On the set-up: key to rats which showed arthritic swelling (mark): *: Indicates rats which showed arthritic swelling. Conditions: 100 mg/kg/day i.p. The method, then:
as §1, §2, §3
Animals in both groups were observed daily for the onset of arthritis. Swelling of the hindpaws was quantitated by measuring the thickness of the ankle from medial to lateral malleolus with a caliper (as done by Trentham et al. supra).

Assay [4] has the same test system. As to the kind of experiment: Prevention of arthritis in collagen-injected rats (Example 2). In kind it is in vivo. The method, then: Eighteen rats were divided into two groups. Nine animals were injected i.p. with DMG (100 mg/kg body weight) daily, starting on day 14 prior to administration of collagen II, and continuing for 30 days after collagen II injection or until severe arthritic lesions were observed, if earlier. The remaining nine rats were similarly injected i.p. with sterile water. In this experiment, as compared with Example 1, the source of the collagen II was changed from a commercial preparation (Chemicon Corp., Temecula, Calif.) to a fresh preparation prepared by the process according to Trentham et al., 1977, supra.

Assay [5] relates to rheumatoid arthritis. The experiment in a line: Treatment of rheumatoid arthritis in humans (Example 3). Type of assay: in vivo, human. The method, then:
Three patients, diagnosed as having rheumatoid arthritis in one or both knees with symptoms of acute pain, inflammation, joint tenderness and morning stiffness, were treated orally with 500 mg of DMG taken four times daily. The test period lasted for six weeks, during which time no other antiinflammatory drugs were taken.

Assay [6] concerns gouty arthritis. As to the kind of experiment: Treatment of gouty arthritis in humans (Example 4). In kind it is in vivo, human. As to conditions: 250 mg t.i.d. As for the experimental part: DMG was administered to two patients suffering from gouty arthritis, at a dosage of 250 mg t.i.d. over a three week period.
Assay [7] relates to lymphocytes. As to conditions: sickle cell disease and diabetes patients; three lectins; cited from earlier work.
The test system of assay [8] is interferon. Conditions: cited from earlier work.
Assay [9] relates to lactic acid. Conditions: intravenous, severe surgical stress; cited from earlier work.
The conditions of assay [10]: high-dose rats; cited from earlier work.
The conditions of assay [11]: cited from earlier work.
The conditions of assay [12]: human tests; cited from earlier work.
The conditions of assay [13]: greyhounds given DMG; cited from earlier work.
Assay [14] relates to interferon. As to conditions: cited from earlier work. The source holds these as a separate data set.
The test system of assay [15] is lymphocytes. As to conditions: lymphocytes from DMG-fed animals; cited from earlier work.
Assay [16] concerns hybridoma antibody producing cells. As to conditions: in vitro cell cultures; cited from earlier work.
The test system of assay [17] is B cells. Conditions: research on humans; cited from earlier work.
In assay [18] the test system is T cells and macrophages. As to conditions: research on humans; cited from earlier work.
Assay [19] deals with B cells. As to conditions: early research; cited from earlier work.
Assay [20] concerns T cells and macrophages. As to conditions: early research; cited from earlier work.
For assay [21] the following is noted: animals under extreme stress; cited from earlier work.
The mark [22] stands for this setting: after 5 days, 1.5 g orally twice daily.
The mark [23] stands for this setting: antibody titre, individual rat, DMG 100 mg/kg/day i.p., absorbance at 490 nm.
The mark [24] stands for this setting: mean, DMG-treated rats, 100 mg/kg/day i.p.

Where “and” joins values, the source holds several entries; their conditions need not be identical. Equal entries are not always repeated. Entries after “also recorded” stand apart in the source; their conditions may differ. Structures can show the parent of a compound that is named as a salt. Where two headings read alike, the source gives them in different places.

In the case of `CN(C)CC(=O)O` [DMG-HCl], in [1] (setting [22]), the “breathing and nasal discharge” value is “improved breathing and less nasal discharge”; the symptomatic relief result was “All three horses showed symptomatic relief after 5 days”. Also, the “clearing of air passages” value in assay [1] (end of 10 days, 1.5 g orally twice daily) is on record as “the air passages of all three horses had cleared”.
As to `CN(C)CC(=O)O` [DMG, N,N-dimethylglycine], in assay [2] (100 mg/kg/day i.p., rats immunized with Type II collagen), the “antibody titres compared with control animals” value was “developed higher antibody titres than control animals”. Moreover, in assay [2] (setting [23]), the “ELISA Reading, serum from day 17” value is on record as “.78”; the “ELISA Reading, serum from day 30” value is “.47 and .00 and .28 and .32 and .33 and .20 and .17 and .48”; the “ELISA Reading, serum from day 51” value is “.60 and .88 and .18 and .35 and .90 and .56 and .64”. In assay [2] (setting [24]), the “Mean ELISA Reading, serum from day 17” value is “.78”; the “Mean ELISA Reading, serum from day 30” value was “.28”; the “Mean ELISA Reading, serum from day 51” value is recorded as “.54”. The “arthritic swellings of the hindpaws compared with non-DMG-treated group” value in assay [3] (beginning on the day of collagen immunization) is listed as “did not develop to the same extent the arthritic swellings of the hindpaws”. For the same compound, the “rats which showed arthritic swelling (mark)” value in assay [3] (individual rat) is recorded as “*”. For the same compound, the “animals developing characteristic inflammation and swelling, of nine” value in assay [4] (100 mg/kg i.p. daily from day 14 before collagen II, all control animals developed arthritis) was “only two developed the characteristic inflammation and swelling to any extent”. Also, the “development of inflammation and swelling associated with Type II collagen-induced arthritis” value in [4] (100 mg/kg/day, starting on day 14 prior to injection) was “either does not develop to the same extent, or does not develop at all”. For the same compound, the “fatigue and night pain” value in [5] (500 mg orally four times daily) was “All three patients reported less fatigue and less night pain”. Also, the “improvement in inflammation, pain and morning stiffness” value in assay [5] (after 21 days, 500 mg orally four times daily) is “two patients reported significant improvement in reduction of inflammation, pain and morning stiffness; also recorded: the third patient reported a lesser improvement”. Also, the additional improvement result in assay [5] (last three weeks of therapy (six weeks)) is “Additional improvement was noted in all three patients”. In assay [6], the “time after which benefits were noted” value lay within 7 to 10 days and the “time to maximal benefits” value is on record as “maximal after two weeks”. The “pain, redness and inflammation” value in [6] (three weeks) was “Less pain, redness and inflammation were noted”. Besides, the “effect on inflammatory condition, heaves in horses” value in assay [1] (summary statement in description) was “demonstrated to reduce the inflammatory condition and to be an effective therapy for heaves in horses”. Moreover, the “blast transformation activity of lymphocytes” value in assay [7] is “approximately doubled”. In [8], the interferon production result is listed as “effective in doubling interferon production; also recorded: will increase interferon production”. Further, the lactic acid production entry in assay [9] is reported as “decreased lactic acid production”. Also, the adaptation to hypoxia entry in assay [10] is recorded as “better adaptation to hypoxia”. The “blood lactic acid level following training” value in assay [11] (DMG in the diet) was “lower blood lactic acid level following training”. Moreover, the “appetite, attitude and recovery from racing and training” value in [11] (trainers' observation, versus controls) was “more aggressive, to have better appetites and attitudes and to recover faster from racing and training than the controls”. Also, in assay [12], the exhaustion time entry is on record as “increase in exhaustion time”; the “immune response (antibody production and lymphocyte generation)” value is on record as “enhancement of the body's immune response”. In assay [13], the racing performance result is listed as “improvement in racing performance” and the recovery after races result is given as “better recovery after races with less fatigue or muscle stiffness”. In assay [14] (primary response, DMG-fed, none detected in immunized controls), the interferon level entry is recorded as “high levels of interferon was present”. For the same compound, in [14] (secondary response), the interferon level entry is on record as “Interferon was not present”. For the same compound, in assay [15], the “lymphocyte activation / proliferation” value is “can stimulate the cellular immune system by lymphatic proliferation”. In [16], the production of antibodies entry is “increases the production of antibodies”. Moreover, the “antibody responses of B cells” value in assay [17] is “much higher antibody responses”. The “activity of T cells and macrophages” value in assay [18] was “enhances the activity of T cells and macrophages”. Besides, the “antibody responses of B cells (humoral branch)” value in [19] is listed as “much higher antibody responses”. Further, the “activity of T cells and macrophages (cellular immunity branch)” value in [20] is “potentiates the activity of T cells and macrophages”. Also, in [21], the lactic acid levels entry was “decrease lactic acid levels” and the oxygen utilization result is reported as “increase oxygen utilization”.

The values above are taken from patent US5026728A, “Treatment of arthritis and inflammation using N,N-dimethylglycine” (Foodscience Corporation, priority 1989, dated 1991).
